# In patent EP1229026A1, “ALKOXYIMINOALKANOIC ACID DERIVATIVES” (Takeda Chemical Industries, Ltd., priority 1999, dated 2001):
# Tests used:
# PPARγ-RXRα heterodimer = target: T1, PPARγ-RXRα heterodimer (Homo sapiens, UniProt P37231); test: PPARγ-RXRα heterodimer ligand activity (luciferase reporter in PPARγ:RXRα:4ERPP/CHO-K1 cells); assay type: cell-based; details: concentration for 50% of the maximum fold induction of luciferase activity, 48 hours
# T1 construct: 1.4 kb DNA fragment containing PPARγ gene was recovered from the gel; expressed in transfected cells; host or cells: CHO-K1
# T1 sequence (P37231 1-477 isoform P37231-2): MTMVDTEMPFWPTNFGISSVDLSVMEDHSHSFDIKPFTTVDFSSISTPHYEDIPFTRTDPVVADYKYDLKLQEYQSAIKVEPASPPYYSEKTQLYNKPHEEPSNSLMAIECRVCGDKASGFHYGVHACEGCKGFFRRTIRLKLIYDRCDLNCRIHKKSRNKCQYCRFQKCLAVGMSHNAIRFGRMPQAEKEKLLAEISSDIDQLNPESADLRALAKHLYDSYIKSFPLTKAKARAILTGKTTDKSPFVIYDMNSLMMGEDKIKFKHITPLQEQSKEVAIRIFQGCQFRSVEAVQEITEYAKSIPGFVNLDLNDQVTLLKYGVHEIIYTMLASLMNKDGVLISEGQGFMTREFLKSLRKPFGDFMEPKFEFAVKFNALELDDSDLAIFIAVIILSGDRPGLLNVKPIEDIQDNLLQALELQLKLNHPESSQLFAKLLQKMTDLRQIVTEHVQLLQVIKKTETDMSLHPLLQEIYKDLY
# T1 sequence (P19793 1-462 partner): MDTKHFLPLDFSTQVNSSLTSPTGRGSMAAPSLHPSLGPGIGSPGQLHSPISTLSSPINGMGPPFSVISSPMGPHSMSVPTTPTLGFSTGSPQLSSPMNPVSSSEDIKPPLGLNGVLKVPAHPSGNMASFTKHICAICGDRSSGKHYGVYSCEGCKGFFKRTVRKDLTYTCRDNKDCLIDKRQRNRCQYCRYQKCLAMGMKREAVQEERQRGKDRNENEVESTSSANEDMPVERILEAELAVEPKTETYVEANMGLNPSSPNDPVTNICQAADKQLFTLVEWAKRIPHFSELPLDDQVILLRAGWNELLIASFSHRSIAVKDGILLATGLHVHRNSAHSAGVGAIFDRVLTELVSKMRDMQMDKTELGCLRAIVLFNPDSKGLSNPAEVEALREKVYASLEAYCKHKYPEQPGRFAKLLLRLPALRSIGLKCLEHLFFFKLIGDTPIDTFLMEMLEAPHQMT
# Procedure: A PPARγ:RXRα:4ERPP/CHO-K1 cells obtained in Reference Example 5 to be described later were cultured in HAM F12 medium (produced by NISSUI PHARMACEUTICAL CO., LTD.) containing 10% fetal bovine serum (produced by Life Technologies, Inc., USA) and then inoculated to a 96-well white plate (produced by Corning Costar Corporation, USA) at the density of 2×10^4 cells/well, and cultured in a CO2 gas incubator at 37°C overnight.
# After washing the 96 well white plate with PBS (phosphate-buffered saline), 90 µl of HAM F12 medium containing 0.1% fatty acid-free bovine serum albumin (BSA) and 10 µl of test compound were added, which was followed by culture in a CO2 gas incubator at 37°C for 48 hours. After removing the medium, 40 µl of PIKKAGENE 7.5 (produced by Wako Pure Chemical Industries, Ltd.) was added. After stirring, the luciferase activity was determined using Lumistar (produced by BMG Labtechnologies GmbH, Germany).
# A fold induction was calculated based on the luciferase activity of each test compound where the luciferase activity in the test compound non-administration group was taken as 1. The values of the test compound concentration and the fold induction were analyzed using PRISM 2.01 (produced by GraphPad Software Inc., USA) to calculate the EC50 values, the effective concentration of the test compound for 50% of the maximum fold induction. […]
# KKA^y mice [1] = test: Hypoglycemic and hypolipidemic (hypotriglyceridemic) actions in mice; assay type: in vivo; details: four days; for Hypoglycemic action (%): percent decrease of plasma glucose vs non-administration group (100%); for Hypolipidemic action (%): percent decrease of plasma triglyceride vs non-administration group (100%)
# Procedure: Test compounds were mixed in a powdery diet (CE-2, Japan Clea) at the concentration of 0.01% (compound of Example 2) or 0.005% (compound of Example 4), and freely given to KKA^y mice (11 to 12 weeks old, 5 mice per group), a model of obesity and type II diabetes, for four days. During this period, water was given freely. Blood was sampled from orbital venous plexus, and glucose and triglyceride levels in plasma separated from blood were determined enzymatically using L type Wako Glu2 (Wako Pure Chemical Industries, Ltd.) or L type Wako TG•H (Wako Pure Chemical Industries, Ltd.), respectively.
# KKA^y mice [2] = test: Total cholesterol lowering action and plasma anti-arteriosclerosis index-increasing action in mice; assay type: in vivo; details: 0.005% in powdery diet, four days
# Procedure: Test compound was mixed in a powdery diet (CE-2, Japan Clea) at the concentration of 0.005%, and freely given to KKA^y mice (12 weeks old, 5 mice per group), a model of obesity and type II diabetes, for four days. During this period, water was given freely. Blood was sampled from orbital venous plexus and plasma was separated and analyzed for components. Total cholesterol levels were determined using L type Wako Cholesterol (Wako Pure Chemical Industries, Ltd.). Precipitation reagent for apoB containing lipoprotein (Wako Pure Chemical Industries, Ltd.) was added to a part of the plasma to allow precipitation of non-HDL lipoprotein, and cholesterol (HDL cholesterol) in the resulting supernatant was determined. The plasma anti-arteriosclerosis index [(HDL cholesterol/total cholesterol)×100] was calculated using these cholesterol levels.
# In the Table, "Total cholesterol lowering action (%)" represents the percent reduction (%) of total cholesterol level in the test compound administration group, when the total cholesterol level in the test compound non-administration group is taken as 100%. "Plasma anti-arteriosclerosis index-increasing action (%)" represents a percent increase (%) of plasma anti-arteriosclerosis index in the test compound administration group, when the plasma anti-arteriosclerosis index in the test compound non-administration group-is taken as 100%.
EC50 (PPARγ-RXRα heterodimer),SMILES,Hypoglycemic action (%) (KKA^y mice [1]; 0.01% in powdery diet),Hypolipidemic action (%) (KKA^y mice [1]; 0.01% in powdery diet),Plasma anti-arteriosclerosis index-increasing action (%) (KKA^y mice [2]; percent increase of index [(HDL cholesterol/total cholesterol)×100] vs non-administration group (100%)),Total cholesterol lowering action (%) (KKA^y mice [2]; percent reduction of total cholesterol level vs non-administration group (100%)),Hypoglycemic action (%) (KKA^y mice [1]; 0.005% in powdery diet),Hypolipidemic action (%) (KKA^y mice [1]; 0.005% in powdery diet)
1600 nM,"Cc1oc(-c2ccccc2)nc1COc1ccc2cc(CO/N=C(\CCC(=O)O)c3ccccc3)ccc2c1 [Example 2, (E)-4-[6-(5-methyl-2-phenyl-4-oxazolylmethoxy)-2-naphthylmethoxyimino]-4-phenylbutyric acid]",30%,22%,,,,
1.4 nM,"Cc1oc(-c2ccccc2)nc1COc1ccc(CO/N=C(\CCC(=O)O)c2ccccc2)cn1 [Example 4, (E)-4-[6-(5-methyl-2-phenyl-4-oxazolylmethoxy)-3-pyridylmethoxyimino]-4-phenylbutyric acid]",,,39%,22%,54%,90%
